According to US20060223826A1, “Indole derivatives as somatostatin agonists or antagonists” (Takeda Pharmaceutical Company Limited Intellectual Property …, priority 2002, published 2006):

What was measured:
glucagon secretion = test: Glucagon secretion inhibitory activity test (rat); assay type: in vivo; settings: SD rats, male, fasted; 3 mg/kg body weight orally; insulin 2 U/kg s.c. 120 minutes later; plasma glucagon 30 minutes after insulin
Procedure: Glucagon Secretion Inhibitory Activity Test (Rat)
A 0.5% methylcellulose suspension containing the subject compound (3 mg/kg body weight) (compound administration group) or a 0.5% methylcellulose suspension (compound non-administration group) was orally administered to SD rats (male, 7 weeks of age) after fasting overnight, and 120 minutes later, insulin (2 U/kg body weight, Novo Nordisk) was subcutaneously administered. After 30 minutes from the insulin administration, the blood was drawn from the vein of eyegrounds of the rats using capillary, and blood plasma was separated by centrifugation. The concentration of glucagon in the obtained blood plasma was measured by radioimmunoassay using a Daiichi glucagon kit (Daiichi Isotope). As a non-treated group, the concentration of glucagon in the blood plasma of rat of the compound non-administration group free of insulin administration was measured in the same manner as above. […]

[1] = target: T1, human somatostatin receptor 2 (Homo sapiens, UniProt P30874); test: Measurement of the binding inhibition rate of 125I-somatostatin; settings: membrane fraction of SSTR2-HS5-9 CHO cells; 125I-somatostatin-14; 25° C., 60 minutes; compound concentration not given
T1 construct: expressed in transfected cells; host or cells: CHO cells, clone SSTR2-HS5-9 (membrane fraction)
T1 sequence (P30874 whole entry): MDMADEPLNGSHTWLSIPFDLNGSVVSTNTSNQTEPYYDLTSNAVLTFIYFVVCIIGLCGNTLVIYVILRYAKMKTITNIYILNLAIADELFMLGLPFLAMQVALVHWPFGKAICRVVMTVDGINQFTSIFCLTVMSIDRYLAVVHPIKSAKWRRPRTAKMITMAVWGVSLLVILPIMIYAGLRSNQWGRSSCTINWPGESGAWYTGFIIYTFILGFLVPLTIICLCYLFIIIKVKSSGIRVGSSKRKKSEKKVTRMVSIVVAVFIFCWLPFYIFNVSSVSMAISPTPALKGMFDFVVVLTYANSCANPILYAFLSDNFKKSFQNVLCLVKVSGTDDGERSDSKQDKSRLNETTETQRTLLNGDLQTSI
Procedure: Measurement of the Binding Inhibition Rate of ^125I-Somatostatin
The receptor binding inhibition rate (%) of the subject compound was calculated using human.somatostatin receptor 2 expressing CHO cells and SSTR2-HS5-9 described in WO02/16350.
First, SSTR2-HS5-9 (1×10^9) was floated on a phosphate buffered saline supplemented with 5 mM EDTA (PBS-EDTA) and centrifuged. To the cell pellets was added 10 ml of a homogenate buffer for cells (10 mM NaHCO3, 5 mM EDTA, pH 7.5), which was homogenated using a Polytron homogenizer. The supernatant obtained by centrifugation at 400×g for 15 minutes was further centrifuged at 100,000×g for 1 hour to give a precipitate of the membrane fraction. The precipitates ere suspended in 2 ml of a buffer solution for assay [25 mM Tris-HCl, 1 mM EDTA (Ethylenediaminetetraacetic Acid), 0.1% BSA (Bovine Serum Albumin), 0.25 mM PMSF (Phenylmethylsulfonyl Fluoride), 1 μg/ml pepstatin, 20 μg/ml leupeptin, 10 μg/ml Phosphoramidone, pH 7.5], which was centrifuged at 100,000×g for 1 hour. The membrane fraction recovered as precipitates was suspended again in 20 ml of the buffer solution for assay, which was placed in tubes and stored at −80° C. The suspension was thawed and used at every use.
The thus-obtained membrane fraction of SSTR2-HS5-9 cells was diluted with a buffer solution for assay [25 mM Tris-HCl, 1 mM EDTA (Ethylenediaminetetraacetic Acid), 0.1% BSA (Bovine Serum Albumin), 0.25 mM PMSF (Phenylmethylsulfonyl Fluoride), 1 μg/ml pepstatin, 20 μg/ml leupeptin, 10 μg/ml Phosphoramidone, pH 7.51 to adjust the concentration to 3 μg/ml. The diluate was placed in tubes each in quantity of 173 μl. To this were simultaneously added 2 μl of a solution of a subject compound in DMSO and 25 μl of a 200 pM radioisotope-labeled somatostatin-14 (^125I-somatostatin-14: Amersham). For measurement of the maximum binding, a reaction mixture added with 2 μl of DMSO and 25 μl of a 200 pM ^125I-somatostatin was prepared. For measurement of non-specific binding, a reaction mixture added with 2 μl of a 100 μm somatostatin solution in DMSO and 25 μl of a 200 pM ^125I-somatostatin-14 solution was prepared at the same time. The mixtures were allowed to react at 25° C. for 60 minutes. Then, the reaction mixture was filtered by aspiration using a Whatman glass filter (GF-B) treated with polyethylenimine. After filtration, the radioactivity of ^125I-somatostatin-14 remaining on the filter paper was measured by a γ-counter. The binding inhibition rate (%) of each subject compound was calculated by the following formula: (TB−SB)/(TB−NSB)×100 • SB: radioactivity when a subject compound was added • TB: maximum binding radioactivity • NSB: non-specific binding radioactivity

| SMILES | glucagon secretion (% of control) (glucagon secretion) | binding inhibition rate (%) [1] [%] |
| --- | --- | --- |
| C[C@@H](c1c[nH]c2ccccc12)[C@@H](NC(=O)N1CCC(c2ccccc2)CC1)C(=O)Nc1cccc(CN(C)C)c1 [Example 1, N-((1R,2S)-1-(((3-((dimethylamino)methyl)phenyl)amino)carbonyl)-2-(1H-indol-3-yl)propyl)-4-phenyl-1-piperidinecarboxamide] | 9.5 % of control | 98 |
| C[C@@H](c1c[nH]c2ccccc12)[C@@H](NC(=O)N1CCC(Oc2ccc(F)cc2)CC1)C(=O)Nc1cccc(CN(C)C)c1 [Example 2, N-( (1R,2S)-1-( ((3-((dimethylamino)methyl)phenyl)amino)carbonyl)-2-(1H-indol-3-yl)propyl)-4-(4-fluorophenoxy)-1-piperidinecarboxamide] | – | 100 |
| CCOc1ccc(CN(C)C)cc1NC(=O)[C@H](NC(=O)N1CCC(c2ccccc2)CC1)[C@@H](C)c1c[nH]c2ccccc12 [Example 54, N-((1R,2S)-1-(((5-((dimethylamino)methyl)-2-ethoxyphenyl)amino)carbonyl)-2-(1H-indol-3-yl)propyl)-4-phenyl-1-piperidinecarboxamide] | – | 100 |
| CCOc1ccc(CN(C)C)cc1NC(=O)[C@H](NC(=O)N1CCN(c2ccc(F)cc2)CC1)[C@@H](C)c1c[nH]c2ccccc12 [Example 67, N-((1R,2S)-1-(((5-((dimethylamino)methyl)-2-ethoxyphenyl)amino)carbonyl)-2-(1H-indol-3-yl)propyl)-4-(4-fluorophenyl)-1-piperazinecarboxamide] | – | 96 |
